In ChEMBL document CHEMBL3817755, “Design, synthesis and biological evaluation of indazolepyrimidine based derivatives as anticancer agents with anti-angiogenic and antiproliferative activities” (Medchemcomm, 2016):

How the values were obtained:
Assay type in all cases: functional
[1] = Growth inhibition of human UACC257 cells at 10 uM after 48 hrs by SRB assay; settings: UACC-257, 48 h, read-out: GI
[2] = Growth inhibition of human HOP92 cells at 10 uM after 48 hrs by SRB assay; settings: HOP-92, 48 h, read-out: GI
[3] = Growth inhibition of human HOP62 cells at 10 uM after 48 hrs by SRB assay; settings: HOP-62, 48 h, read-out: GI
[4] = Growth inhibition of human NCI-ADR-RES cells at 10 uM after 48 hrs by SRB assay; settings: read-out: GI
NCI-H522 = assay: Growth inhibition of human NCI-H522 cells at 10 uM after 48 hrs by SRB assay; settings: NCI-H522, 48 h, read-out: GI
[5] = Growth inhibition of human Caki1 cells at 10 uM after 48 hrs by SRB assay; settings: CAKI-1, 48 h, read-out: GI
[6] = Growth inhibition of human TK10 cells at 10 uM after 48 hrs by SRB assay; settings: TK-10, 48 h, read-out: GI
CCRF-CEM = assay: Growth inhibition of human CCRF-CEM cells at 10 uM after 48 hrs by SRB assay; settings: read-out: GI
SK-MEL-2 = assay: Growth inhibition of human SK-MEL-2 cells at 10 uM after 48 hrs by SRB assay; settings: SK-MEL-2, 48 h, read-out: GI
[7] = Growth inhibition of human LOXIMVI cells at 10 uM after 48 hrs by SRB assay; settings: LOX IMVI, read-out: GI
MDA-MB-435 = assay: Growth inhibition of human MDA-MB-435 cells at 10 uM after 48 hrs by SRB assay; settings: MDA-MB-435, 48 h, read-out: GI
[8] = Growth inhibition of human UO31 cells at 10 uM after 48 hrs by SRB assay; settings: UO-31, 48 h, read-out: GI
[9] = Growth inhibition of human Hs 578T cells at 10 uM after 48 hrs by SRB assay; settings: read-out: GI
MCF7 = assay: Growth inhibition of human MCF7 cells at 10 uM after 48 hrs by SRB assay; settings: MCF7, 48 h, read-out: GI
Malme-3M = assay: Growth inhibition of human MALME-3M cells at 10 uM after 48 hrs by SRB assay; settings: read-out: GI
[10] = Growth inhibition of human MOLT4 cells at 10 uM after 48 hrs by SRB assay; settings: MOLT-4, 48 h, read-out: GI
[11] = Growth inhibition of human RXF393 cells at 10 uM after 48 hrs by SRB assay; settings: RXF 393, 48 h, read-out: GI
[12] = Growth inhibition of human OVCAR5 cells at 10 uM after 48 hrs by SRB assay; settings: OVCAR-5, 48 h, read-out: GI
NCI-H23 = assay: Growth inhibition of human NCI-H23 cells at 10 uM after 48 hrs by SRB assay; settings: NCI-H23, 48 h, read-out: GI
[13] = Growth inhibition of human OVCAR4 cells at 10 uM after 48 hrs by SRB assay; settings: OVCAR-4, 48 h, read-out: GI
SK-MEL-5 = assay: Growth inhibition of human SK-MEL-5 cells at 10 uM after 48 hrs by SRB assay; settings: SK-MEL-5, 48 h, read-out: GI
HT-29 = assay: Growth inhibition of human HT-29 cells at 10 uM after 48 hrs by SRB assay; settings: HT-29, 48 h, read-out: GI
[14] = Growth inhibition of human HCC2998 cells at 10 uM after 48 hrs by SRB assay; settings: HCC 2998, 48 h, read-out: GI
[15] = Growth inhibition of human COLO205 cells at 10 uM after 48 hrs by SRB assay; settings: COLO 205, 48 h, read-out: GI
[16] = Growth inhibition of human SF268 cells at 10 uM after 48 hrs by SRB assay; settings: SF-268, 48 h, read-out: GI
[17] = Growth inhibition of human OVCAR3 cells at 10 uM after 48 hrs by SRB assay; settings: OVCAR-3, 48 h, read-out: GI
[18] = Growth inhibition of human DU145 cells at 10 uM after 48 hrs by SRB assay; settings: DU-145, 48 h, read-out: GI
NCI-H226 = assay: Growth inhibition of human NCI-H226 cells at 10 uM after 48 hrs by SRB assay; settings: NCI-H226, 48 h, read-out: GI
[19] = Growth inhibition of human IGROV1 cells at 10 uM after 48 hrs by SRB assay; settings: IGROV-1, 48 h, read-out: GI
A549 = assay: Growth inhibition of human A549/ATCC cells at 10 uM after 48 hrs by SRB assay; settings: A549, 48 h, read-out: GI
786-0 = assay: Growth inhibition of human 786-0 cells at 10 uM after 48 hrs by SRB assay; settings: 786-0, 48 h, read-out: GI
[20] = Growth inhibition of human SNB75 cells at 10 uM after 48 hrs by SRB assay; settings: SNB-75, 48 h, read-out: GI
[21] = Growth inhibition of human OVCAR8 cells at 10 uM after 48 hrs by SRB assay; settings: OVCAR-8, 48 h, read-out: GI
SN12C = assay: Growth inhibition of human SN12C cells at 10 uM after 48 hrs by SRB assay; settings: read-out: GI
ACHN = assay: Growth inhibition of human ACHN cells at 10 uM after 48 hrs by SRB assay; settings: read-out: GI
[22] = Growth inhibition of human SKOV3 cells at 10 uM after 48 hrs by SRB assay; settings: SK-OV-3, 48 h, read-out: GI
K562 = assay: Growth inhibition of human K562 cells at 10 uM after 48 hrs by SRB assay; settings: K562, 48 h, read-out: GI
NCI-H322M = assay: Growth inhibition of human NCI-H322M cells at 10 uM after 48 hrs by SRB assay; settings: read-out: GI
[23] = Growth inhibition of human BT549 cells at 10 uM after 48 hrs by SRB assay; settings: BT-549, 48 h, read-out: GI
[24] = Growth inhibition of human SF295 cells at 10 uM after 48 hrs by SRB assay; settings: SF-295, 48 h, read-out: GI
[25] = Growth inhibition of human PC3 cells at 10 uM after 48 hrs by SRB assay; settings: PC-3, 48 h, read-out: GI
[26] = Growth inhibition of human SF539 cells at 10 uM after 48 hrs by SRB assay; settings: SF-539, 48 h, read-out: GI
[27] = Growth inhibition of human SW620 cells at 10 uM after 48 hrs by SRB assay; settings: SW-620, 48 h, read-out: GI

SMILES: COc1ccc(Nc2nccc(Nc3ccc4[nH]ncc4c3)n2)cc1
- inhibition of growth at 10 µM [1]: 54%
- inhibition of growth at 10 µM [2]: 101%
- inhibition of growth at 10 µM [3]: 51%
- inhibition of growth at 10 µM [4]: 82%
- inhibition of growth at 10 µM (NCI-H522): 81%
- inhibition of growth at 10 µM [5]: 62%
- inhibition of growth at 10 µM [6]: 81%
- inhibition of growth at 10 µM (CCRF-CEM): 102%
- inhibition of growth at 10 µM (SK-MEL-2): 70%
- inhibition of growth at 10 µM [7]: 81%
- inhibition of growth at 10 µM (MDA-MB-435): 65%
- inhibition of growth at 10 µM [8]: 84%
- inhibition of growth at 10 µM [9]: 53%
- inhibition of growth at 10 µM (MCF7): 87%
- inhibition of growth at 10 µM (Malme-3M): 24%
- inhibition of growth at 10 µM [10]: 99%
- inhibition of growth at 10 µM [11]: 68%
- inhibition of growth at 10 µM [12]: 48%
- inhibition of growth at 10 µM (NCI-H23): 60%
- inhibition of growth at 10 µM [13]: 67%
- inhibition of growth at 10 µM (SK-MEL-5): 98%
- inhibition of growth at 10 µM (HT-29): 88%
- inhibition of growth at 10 µM [14]: 37%
- inhibition of growth at 10 µM [15]: 74%
- inhibition of growth at 10 µM [16]: 53%
- inhibition of growth at 10 µM [17]: 51%
- inhibition of growth at 10 µM [18]: 68%
- inhibition of growth at 10 µM (NCI-H226): 72%
- inhibition of growth at 10 µM [19]: 49%
- inhibition of growth at 10 µM (A549): 76%
- inhibition of growth at 10 µM (786-0): 56%
- inhibition of growth at 10 µM [20]: 34%
- inhibition of growth at 10 µM [21]: 91%
- inhibition of growth at 10 µM (SN12C): 57%
- inhibition of growth at 10 µM (ACHN): 71%
- inhibition of growth at 10 µM [22]: 48%
- inhibition of growth at 10 µM (K562): 95%
- inhibition of growth at 10 µM (NCI-H322M): 37%
- inhibition of growth at 10 µM [23]: 56%
- inhibition of growth at 10 µM [24]: 52%
- inhibition of growth at 10 µM [25]: 87%
- inhibition of growth at 10 µM [26]: 31%
- inhibition of growth at 10 µM [27]: 75%

SMILES: NS(=O)(=O)c1ccc(Nc2nccc(Nc3ccc4[nH]ncc4c3)n2)cc1
- inhibition of growth at 10 µM [1]: 14%
- inhibition of growth at 10 µM [2]: 47%
- inhibition of growth at 10 µM [3]: 17%
- inhibition of growth at 10 µM [4]: -6%
- inhibition of growth at 10 µM (NCI-H522): 57%
- inhibition of growth at 10 µM [5]: -4%
- inhibition of growth at 10 µM [6]: -16%
- inhibition of growth at 10 µM (CCRF-CEM): 28%
- inhibition of growth at 10 µM (SK-MEL-2): 4%
- inhibition of growth at 10 µM [7]: 14%
- inhibition of growth at 10 µM (MDA-MB-435): 1%
- inhibition of growth at 10 µM [8]: 18%
- inhibition of growth at 10 µM [9]: 17%
- inhibition of growth at 10 µM (MCF7): 40%
- inhibition of growth at 10 µM (Malme-3M): -3%
- inhibition of growth at 10 µM [10]: 12%
- inhibition of growth at 10 µM [11]: 11%
- inhibition of growth at 10 µM [12]: -10%
- inhibition of growth at 10 µM (NCI-H23): 14%
- inhibition of growth at 10 µM [13]: -12%
- inhibition of growth at 10 µM (SK-MEL-5): 11%
- inhibition of growth at 10 µM (HT-29): 9%
- inhibition of growth at 10 µM [14]: -18%
- inhibition of growth at 10 µM [15]: -4%
- inhibition of growth at 10 µM [16]: 12%
- inhibition of growth at 10 µM [17]: -10%
- inhibition of growth at 10 µM [18]: -6%
- inhibition of growth at 10 µM (NCI-H226): 28%
- inhibition of growth at 10 µM [19]: -3%
- inhibition of growth at 10 µM (A549): 11%
- inhibition of growth at 10 µM (786-0): -1%
- inhibition of growth at 10 µM [20]: 22%
- inhibition of growth at 10 µM [21]: 18%
- inhibition of growth at 10 µM (SN12C): 10%
- inhibition of growth at 10 µM (ACHN): -7%
- inhibition of growth at 10 µM [22]: -4%
- inhibition of growth at 10 µM (K562): 25%
- inhibition of growth at 10 µM (NCI-H322M): -5%
- inhibition of growth at 10 µM [23]: -6%
- inhibition of growth at 10 µM [24]: 2%
- inhibition of growth at 10 µM [25]: 25%
- inhibition of growth at 10 µM [26]: -3%
- inhibition of growth at 10 µM [27]: -11%
